What all share (format): functional
The subject of test [1] is Staphylococcus aureus. Kind of test: Induction of drug resistance in methicillin-resistant Staphylococcus aureus USA 300 assessed as fold increase in MIC treated daily for 30 days. As to conditions: time 30.0 day.
The subject of test [2] is Staphylococcus aureus. Kind of test: Induction of drug resistance in methicillin-resistant Staphylococcus aureus ATCC 33592 assessed as fold increase in MIC treated daily for 30 days. The settings on record: time 30.0 day.
Test [3] relates to Enterococcus faecium. Nature of the test: Synergistic antibiofilm activity against vancomycin-resistant Enterococcus faecium ATCC 700221 in TSB broth assessed as dispersal of glucose-induced biofilm by measuring Nitroxoline MBEC preincubated with glucose for 48 hrs followed by compound addition and measured after 24 hrs by crystal violet staining based checkerboard assay.
In test [4] the test system is Enterococcus faecium. Nature of the test: Antibiofilm activity against vancomycin-resistant Enterococcus faecium ATCC 700221 in TSB broth assessed as dispersal of glucose-induced biofilm preincubated with glucose for 48 hrs followed by compound addition and measured after 24 hrs by crystal violet staining based analysis.
Test [5] deals with Staphylococcus aureus. Kind of test: Antibiofilm activity against methicillin-resistant Staphylococcus aureus USA 300 in TSB broth assessed as dispersal of glucose-induced biofilm preincubated with glucose for 48 hrs followed by compound addition and measured after 24 hrs by crystal violet staining based analysis.
Test [6] relates to Staphylococcus aureus. Nature of the test: Synergistic antibiofilm activity against methicillin-resistant Staphylococcus aureus USA 300 in TSB broth assessed as dispersal of glucose-induced biofilm by measuring Nitroxoline MBEC preincubated with glucose for 48 hrs followed by compound addition and measured after 24 hrs by crystal violet staining based checkerboard assay.
Test [7] has as its system Staphylococcus aureus. Nature of the test: Synergistic antibiofilm activity against methicillin-resistant Staphylococcus aureus USA 300 in TSB broth assessed as dispersal of glucose-induced biofilm by measuring Bithionol MBEC preincubated with glucose for 48 hrs followed by compound addition and measured after 24 hrs by crystal violet staining based checkerboard assay.

Test [8] has as its system Staphylococcus aureus. Nature of the test: Synergistic antibiofilm activity against methicillin-resistant Staphylococcus aureus USA 300 in TSB broth assessed as dispersal of glucose-induced biofilm preincubated with glucose for 48 hrs followed by compound addition and further incubated for 24 hrs in presence of Nitroxoline by crystal violet staining based checkerboard assay.

The subject of test [9] is Staphylococcus aureus. Kind of test: Synergistic antibiofilm activity against methicillin-resistant Staphylococcus aureus USA 300 in TSB broth assessed as dispersal of glucose-induced biofilm preincubated with glucose for 48 hrs followed by compound addition and further incubated for 24 hrs in presence of Bithionol by crystal violet staining based checkerboard assay.
The subject of test [10] is Staphylococcus aureus. Nature of the test: Synergistic antibiofilm activity against methicillin-resistant Staphylococcus aureus USA 300 in TSB broth assessed as dispersal of glucose-induced biofilm by measuring fractional inhibitory concentration index preincubated with glucose for 48 hrs followed by compound addition and further incubated for 24 hrs in presence of Nitroxoline by crystal violet staining based checkerboard assay.

Test [11] concerns Staphylococcus aureus. Kind of test: Synergistic antibiofilm activity against methicillin-resistant Staphylococcus aureus USA 300 in TSB broth assessed as dispersal of glucose-induced biofilm by measuring fractional inhibitory concentration index preincubated with glucose for 48 hrs followed by compound addition and further incubated for 24 hrs in presence of Bithionol by crystal violet staining based checkerboard assay.

Test [12] has as its system Enterococcus faecalis. Kind of test: Antibiofilm activity against vancomycin-resistant Enterococcus faecalis ATCC 51575 in TSB broth assessed as dispersal of glucose-induced biofilm preincubated with glucose for 48 hrs followed by compound addition and measured after 24 hrs by crystal violet staining based analysis.
Test [13] deals with Enterococcus faecalis. Kind of test: Synergistic antibiofilm activity against vancomycin-resistant Enterococcus faecalis ATCC 51575 in TSB broth assessed as dispersal of glucose-induced biofilm by measuring Nitroxoline MBEC preincubated with glucose for 48 hrs followed by compound addition and measured after 24 hrs by crystal violet staining based checkerboard assay.
The subject of test [14] is Enterococcus faecalis. Nature of the test: Synergistic antibiofilm activity against vancomycin-resistant Enterococcus faecalis ATCC 51575 in TSB broth assessed as dispersal of glucose-induced biofilm by measuring Bithionol MBEC preincubated with glucose for 48 hrs followed by compound addition and measured after 24 hrs by crystal violet staining based checkerboard assay.

Test [15] relates to Enterococcus faecalis. Kind of test: Synergistic antibiofilm activity against vancomycin-resistant Enterococcus faecalis ATCC 51575 in TSB broth assessed as dispersal of glucose-induced biofilm preincubated with glucose for 48 hrs followed by compound addition and further incubated for 24 hrs in presence of Nitroxoline by crystal violet staining based checkerboard assay.
For test [16], the system named is Enterococcus faecalis. Nature of the test: Synergistic antibiofilm activity against vancomycin-resistant Enterococcus faecalis ATCC 51575 in TSB broth assessed as dispersal of glucose-induced biofilm preincubated with glucose for 48 hrs followed by compound addition and further incubated for 24 hrs in presence of Bithionol by crystal violet staining based checkerboard assay.

Test [17] has as its system Enterococcus faecalis. Nature of the test: Synergistic antibiofilm activity against vancomycin-resistant Enterococcus faecalis ATCC 51575 in TSB broth assessed as dispersal of glucose-induced biofilm by measuring fractional inhibitory concentration index preincubated with glucose for 48 hrs followed by compound addition and further incubated for 24 hrs in presence of Nitroxoline by crystal violet staining based checkerboard assay.

For test [18], the system named is Enterococcus faecalis. Kind of test: Synergistic antibiofilm activity against vancomycin-resistant Enterococcus faecalis ATCC 51575 in TSB broth assessed as dispersal of glucose-induced biofilm by measuring fractional inhibitory concentration index preincubated with glucose for 48 hrs followed by compound addition and further incubated for 24 hrs in presence of Bithionol by crystal violet staining based checkerboard assay.

The test system of test [19] is Enterococcus faecium. Kind of test: Synergistic antibiofilm activity against vancomycin-resistant Enterococcus faecium ATCC 700221 in TSB broth assessed as dispersal of glucose-induced biofilm […] preincubated with glucose for 48 hrs followed by compound addition and measured after 24 hrs by crystal violet staining based checkerboard assay.

In test [20] the test system is Enterococcus faecium. Nature of the test: Synergistic antibiofilm activity against vancomycin-resistant Enterococcus faecium ATCC 700221 in TSB broth assessed as dispersal of glucose-induced biofilm preincubated with glucose for 48 hrs followed by compound addition and further incubated for 24 hrs in presence of Nitroxoline by crystal violet staining based checkerboard assay.

The subject of test [21] is Enterococcus faecium. Nature of the test: Synergistic antibiofilm activity against vancomycin-resistant Enterococcus faecium ATCC 700221 in TSB broth assessed as dispersal of glucose-induced biofilm preincubated with glucose for 48 hrs followed by compound addition and further incubated for 24 hrs in presence of Bithionol by crystal violet staining based checkerboard assay.

In test [22] the test system is Enterococcus faecium. Nature of the test: Synergistic antibiofilm activity against vancomycin-resistant Enterococcus faecium ATCC 700221 in TSB broth assessed as dispersal of glucose-induced biofilm by measuring fractional inhibitory concentration index preincubated with glucose for 48 hrs followed by compound addition and further incubated for 24 hrs in presence of Nitroxoline by crystal violet staining based checkerboard assay.

Test [23] has as its system Enterococcus faecium. Kind of test: Synergistic antibiofilm activity against vancomycin-resistant Enterococcus faecium ATCC 700221 in TSB broth assessed as dispersal of glucose-induced biofilm by measuring fractional inhibitory concentration index preincubated with glucose for 48 hrs followed by compound addition and further incubated for 24 hrs in presence of Bithionol by crystal violet staining based checkerboard assay.

Regarding `C/C(=C\C(=O)OCCCCCCCCC(=O)O)C[C@@H]1OC[C@H](C[C@@H]2O[C@H]2[C@@H](C)[C@H](C)O)[C@@H](O)[C@H]1O`, the fold change (FC) in the test on Staphylococcus aureus [1] was > 60; in the test on Staphylococcus aureus [2], > 250.
In the case of `FC(F)(F)c1n[nH]cc1[C@@H]1Nc2ccc(S(F)(F)(F)(F)F)cc2[C@H]2[C@@H]3CC[C@@H](C3)[C@H]21`, the MBEC worked out at 2 µg/mL with Enterococcus faecium [3]; 32 µg/mL in the test with Enterococcus faecium [4]; 32 µg/mL in the test on Staphylococcus aureus [5]; 2 µg/mL with Staphylococcus aureus [6]; 2 µg/mL with Staphylococcus aureus [7]; 8 µg/mL in the test on Staphylococcus aureus [8]. The MBEC with Staphylococcus aureus [9] is 1 µg/mL; in the test on Enterococcus faecalis [12], 32 µg/mL; with Enterococcus faecalis [13] it was 2 µg/mL; with Enterococcus faecalis [14] it was 2 µg/mL; in the test with Enterococcus faecalis [15] it was 1 µg/mL; in the test with Enterococcus faecalis [16] it was 1 µg/mL. The MBEC in the test on Enterococcus faecium [19] came out at 4 µg/mL; with Enterococcus faecium [20] it was 1 µg/mL; in the test on Enterococcus faecium [21], 1 µg/mL. The “fractional inhibitory concentration index (FICI)” value in the test with Staphylococcus aureus [10] is reported as 0.38; in the test on Staphylococcus aureus [11], 0.28; in the test with Enterococcus faecalis [17], 0.25; with Enterococcus faecalis [18] it was 0.28; with Enterococcus faecium [22], 0.16; in the test with Enterococcus faecium [23] it was 0.28.

The record behind these values is ChEMBL document CHEMBL5113477, “Membrane acting Povarov-Doebner derived compounds potently disperse preformed multidrug resistant Gram-positive bacterial biofilms” (Eur J Med Chem, 2022).
